Results taken from PubChem BioAssay AID252 (DTP/NCI, 2004).
“And” between values parts separate entries of the source, which are not always exact repeats. Equal values may be shown once. Toxic doses and inconclusive results are not listed.

Tested on: BDF1 mice, intracerebral L1210 leukemia, survival T/C
Assay: NCI In Vivo Anticancer Drug Screen. Data for tumor model L1210 Leukemia (intracerebral) in B6D2F1 (BDF1) mice
Details: higher = longer survival
Summary of the method: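 Tumour was transplanted, animals received compound or vehicle, then survival in each group was measured and treated divided by control.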

[1] = endpoint: mean survival time, dose: 7.0 mg/kg/injection, schedule: Q01DX001 (ip), vehicle: other
[2] = endpoint: mean survival time, dose: 15.0 mg/kg/injection, schedule: Q01DX001 (ip), vehicle: other
[3] = endpoint: mean survival time, dose: 6.25 mg/kg/injection, schedule: Q01DX009 (ip), vehicle: saline
[4] = endpoint: mean survival time, dose: 6.25 mg/kg/injection, schedule: Q01DX009 (sc), vehicle: saline
[5] = endpoint: mean survival time, dose: 12.5 mg/kg/injection, schedule: Q01DX009 (sc), vehicle: saline

## O=CC(NC(=O)N(CCCl)N=O)C(O)C(O)C(O)CO (stereo not drawn)
endpoint: mean survival time, dose: 4.0 mg/kg/injection, schedule: Q01DX001 (ip), vehicle: carboxymethylcellulose (CMC)
  T/C: 111 % of control
endpoint: mean survival time, dose: 6.0 mg/kg/injection, schedule: Q01DX001 (ip), vehicle: carboxymethylcellulose (CMC)
  T/C: 111 % of control
endpoint: mean survival time, dose: 9.0 mg/kg/injection, schedule: Q01DX001 (ip), vehicle: carboxymethylcellulose (CMC)
  T/C: 112 % of control
endpoint: mean survival time, dose: 9.0 mg/kg/injection, schedule: Q01DX001 (ip), vehicle: saline
  T/C: 110 % of control
endpoint: mean survival time, dose: 13.0 mg/kg/injection, schedule: Q01DX001 (ip), vehicle: carboxymethylcellulose (CMC)
  T/C: 123 % of control
endpoint: mean survival time, dose: 13.0 mg/kg/injection, schedule: Q01DX001 (ip), vehicle: saline
  T/C: 109 % of control
endpoint: mean survival time, dose: 20.0 mg/kg/injection, schedule: Q01DX001 (ip), vehicle: carboxymethylcellulose (CMC)
  T/C: 119 % of control
endpoint: mean survival time, dose: 20.0 mg/kg/injection, schedule: Q01DX001 (ip), vehicle: saline
  T/C: 112 % of control
endpoint: mean survival time, dose: 30.0 mg/kg/injection, schedule: Q01DX001 (ip), vehicle: carboxymethylcellulose (CMC)
  T/C: 119 % of control
endpoint: mean survival time, dose: 30.0 mg/kg/injection, schedule: Q01DX001 (ip), vehicle: saline
  T/C: 117 % of control
endpoint: mean survival time, dose: 45.0 mg/kg/injection, schedule: Q01DX001 (ip), vehicle: carboxymethylcellulose (CMC)
  T/C: 111 % of control
endpoint: mean survival time, dose: 45.0 mg/kg/injection, schedule: Q01DX001 (ip), vehicle: saline
  T/C: 106 % of control

## NC(Cc1ccc(N(CCCl)CCCl)cc1)C(=O)O (stereo not drawn)
endpoint: mean survival time, dose: 8.0 mg/kg/injection, schedule: Q01DX001 (ip), vehicle: carboxymethylcellulose (CMC)
  T/C: 119 % of control
endpoint: mean survival time, dose: 12.0 mg/kg/injection, schedule: Q01DX001 (ip), vehicle: carboxymethylcellulose (CMC)
  T/C: 117 % of control

## O=NN(CCF)C(=O)NC1CCS(=O)(=O)CC1
endpoint: mean survival time, dose: 2.5 mg/kg/injection, schedule: Q01DX001 (ip), vehicle: other
  T/C: 111 % of control
endpoint: mean survival time, dose: 2.9 mg/kg/injection, schedule: Q01DX001 (ip), vehicle: other
  T/C: 108 % of control and 114 % of control
endpoint: mean survival time, dose: 3.75 mg/kg/injection, schedule: Q01DX001 (ip), vehicle: other
  T/C: 118 % of control
endpoint: mean survival time, dose: 4.8 mg/kg/injection, schedule: Q01DX001 (oral), vehicle: other
  T/C: 181 % of control
endpoint: mean survival time, dose: 5.0 mg/kg/injection, schedule: Q01DX001 (ip), vehicle: other
  T/C: 124 % of control
endpoint: mean survival time, dose: 6.0 mg/kg/injection, schedule: Q01DX001 (ip), vehicle: other
  T/C: 121 % of control
[1]
  T/C: 165 % of control
endpoint: mean survival time, dose: 7.5 mg/kg/injection, schedule: Q01DX001 (ip), vehicle: other
  T/C: 163 % of control
endpoint: mean survival time, dose: 10.0 mg/kg/injection, schedule: Q01DX001 (ip), vehicle: other
  T/C: 183 % of control
endpoint: mean survival time, dose: 11.0 mg/kg/injection, schedule: Q01DX001 (ip), vehicle: other
  T/C: 191 % of control
endpoint: mean survival time, dose: 11.0 mg/kg/injection, schedule: Q01DX001 (oral), vehicle: other
  T/C: 200 % of control and 315 % of control
endpoint: mean survival time, dose: 12.0 mg/kg/injection, schedule: Q01DX001 (ip), vehicle: other
  T/C: 150 % of control and 214 % of control
[2]
  T/C: 202 % of control
endpoint: mean survival time, dose: 16.0 mg/kg/injection, schedule: Q01DX001 (ip), vehicle: other
  T/C: 284 % of control
endpoint: mean survival time, dose: 20.0 mg/kg/injection, schedule: Q01DX001 (ip), vehicle: other
  T/C: 322 % of control
endpoint: mean survival time, dose: 21.0 mg/kg/injection, schedule: Q01DX001 (oral), vehicle: other
  T/C: 477 % of control and 662 % of control
endpoint: mean survival time, dose: 24.0 mg/kg/injection, schedule: Q01DX001 (ip), vehicle: other
  T/C: 341 % of control and 410 % of control and 463 % of control
endpoint: mean survival time, dose: 30.0 mg/kg/injection, schedule: Q01DX001 (ip), vehicle: other
  T/C: 348 % of control
endpoint: mean survival time, dose: 40.0 mg/kg/injection, schedule: Q01DX001 (ip), vehicle: other
  T/C: 305 % of control
endpoint: mean survival time, dose: 40.0 mg/kg/injection, schedule: Q01DX001 (oral), vehicle: other
  T/C: 456 % of control and 486 % of control
endpoint: mean survival time, dose: 48.0 mg/kg/injection, schedule: Q01DX001 (ip), vehicle: other
  T/C: 354 % of control
endpoint: mean survival time, dose: 80.0 mg/kg/injection, schedule: Q01DX001 (oral), vehicle: other
  T/C: 86 % of control

## O=NN(CCF)C(=O)NC1CSCSC1
endpoint: mean survival time, dose: 3.7 mg/kg/injection, schedule: Q01DX001 (ip), vehicle: other
  T/C: 111 % of control
[1]
  T/C: 120 % of control and 123 % of control
[2]
  T/C: 163 % of control
endpoint: mean survival time, dose: 28.0 mg/kg/injection, schedule: Q01DX001 (ip), vehicle: other
  T/C: 176 % of control
endpoint: mean survival time, dose: 31.0 mg/kg/injection, schedule: Q01DX001 (ip), vehicle: other
  T/C: 177 % of control and 278 % of control
endpoint: mean survival time, dose: 41.0 mg/kg/injection, schedule: Q01DX001 (ip), vehicle: other
  T/C: 291 % of control
endpoint: mean survival time, dose: 62.0 mg/kg/injection, schedule: Q01DX001 (ip), vehicle: other
  T/C: 290 % of control and 337 % of control

## CC(=O)Nc1ccc2c(Nc3ccc(NS(C)(=O)=O)cc3)c3ccccc3nc2c1
endpoint: mean survival time, dose: 1.5 mg/kg/injection, schedule: Q01DX009 (ip), vehicle: saline
  T/C: 89 % of control
endpoint: mean survival time, dose: 1.5 mg/kg/injection, schedule: Q01DX009 (sc), vehicle: saline
  T/C: 98 % of control
endpoint: mean survival time, dose: 3.0 mg/kg/injection, schedule: Q01DX009 (ip), vehicle: saline
  T/C: 98 % of control
endpoint: mean survival time, dose: 3.0 mg/kg/injection, schedule: Q01DX009 (sc), vehicle: saline
  T/C: 105 % of control
[3]
  T/C: 86 % of control
[4]
  T/C: 109 % of control
[5]
  T/C: 98 % of control

## COc1ccc2c(Nc3ccc(NS(C)(=O)=O)cc3)c3ccccc3nc2c1
[3]
  T/C: 106 % of control
[4]
  T/C: 104 % of control
endpoint: mean survival time, dose: 12.5 mg/kg/injection, schedule: Q01DX009 (ip), vehicle: saline
  T/C: 102 % of control
[5]
  T/C: 100 % of control
endpoint: mean survival time, dose: 25.0 mg/kg/injection, schedule: Q01DX009 (sc), vehicle: saline
  T/C: 106 % of control
endpoint: mean survival time, dose: 50.0 mg/kg/injection, schedule: Q01DX009 (sc), vehicle: saline
  T/C: 88 % of control

## S=C=NCCc1ccccc1
endpoint: mean survival time, dose: 12.5 mg/kg/injection, schedule: Q01DX009 (ip), vehicle: saline with Tween-80
  T/C: 343 % of control
endpoint: mean survival time, dose: 25.0 mg/kg/injection, schedule: Q01DX009 (ip), vehicle: saline with Tween-80
  T/C: 93 % of control
endpoint: mean survival time, dose: 50.0 mg/kg/injection, schedule: Q01DX009 (ip), vehicle: saline with Tween-80
  T/C: 95 % of control

## COc1cccc2c1C(=O)c1c(O)c3c(c(O)c1C2=O)C[C@@](O)(C(C)=O)C[C@@H]3OC1CC(N)C(O)C(C)O1 (stereo partly drawn)
endpoint: mean survival time, dose: 1.08 mg/kg/injection, schedule: Q04DX003 (ip), vehicle: water
  T/C: 101 % of control
endpoint: mean survival time, dose: 1.8 mg/kg/injection, schedule: Q04DX003 (ip), vehicle: water
  T/C: 101 % of control
endpoint: mean survival time, dose: 3.0 mg/kg/injection, schedule: Q04DX003 (ip), vehicle: water
  T/C: 97 % of control
endpoint: mean survival time, dose: 3.12 mg/kg/injection, schedule: Q01DX001 (ip), vehicle: water
  T/C: 102 % of control
endpoint: mean survival time, dose: 5.0 mg/kg/injection, schedule: Q04DX003 (ip), vehicle: water
  T/C: 102 % of control
endpoint: mean survival time, dose: 6.25 mg/kg/injection, schedule: Q01DX001 (ip), vehicle: water
  T/C: 97 % of control
endpoint: mean survival time, dose: 12.5 mg/kg/injection, schedule: Q01DX001 (ip), vehicle: water
  T/C: 91 % of control
endpoint: mean survival time, dose: 25.0 mg/kg/injection, schedule: Q01DX001 (ip), vehicle: water
  T/C: 96 % of control
endpoint: median survival time, dose: 1.08 mg/kg/injection, schedule: Q04DX003 (ip), vehicle: water
  T/C: 97 % of control
endpoint: median survival time, dose: 1.8 mg/kg/injection, schedule: Q04DX003 (ip), vehicle: water
  T/C: 96 % of control
endpoint: median survival time, dose: 3.0 mg/kg/injection, schedule: Q04DX003 (ip), vehicle: water
  T/C: 96 % of control
endpoint: median survival time, dose: 5.0 mg/kg/injection, schedule: Q04DX003 (ip), vehicle: water
  T/C: 96 % of control
endpoint: median survival time, dose: 8.4 mg/kg/injection, schedule: Q04DX003 (ip), vehicle: water
  T/C: 95 % of control

## O=C1N[C@@H]([C@H]2CC[C@H](Cl)CN2)C(=O)N[C@H]1[C@H]1CC[C@H](Cl)CN1
endpoint: mean survival time, dose: 0.5 mg/kg/injection, schedule: Q01DX009 (ip), vehicle: saline
  T/C: 110 % of control
endpoint: mean survival time, dose: 1.0 mg/kg/injection, schedule: Q01DX001 (ip), vehicle: saline
  T/C: 102 % of control
endpoint: mean survival time, dose: 1.0 mg/kg/injection, schedule: Q01DX009 (ip), vehicle: saline
  T/C: 118 % of control
endpoint: mean survival time, dose: 2.0 mg/kg/injection, schedule: Q01DX001 (ip), vehicle: saline
  T/C: 103 % of control and 100 % of control
endpoint: mean survival time, dose: 4.0 mg/kg/injection, schedule: Q01DX001 (ip), vehicle: saline
  T/C: 103 % of control and 119 % of control
endpoint: mean survival time, dose: 8.0 mg/kg/injection, schedule: Q01DX001 (ip), vehicle: saline
  T/C: 105 % of control and 123 % of control
